Reference: patent US20250302306A1, “TUMOR TARGETING PROBE FOR IMAGE GUIDED SURGICAL METHODS” (priority 2021, published 2025)

How the values were obtained:
MDA-MB-231-iRFP tumors = experiment: Tumor margin assessment: colocalization with tumor marker iRFP, ex vivo Odyssey scan; assay type: in vivo, athymic mice; conditions: 0.5 mg/kg i.v., 24 hr
Procedure: In FIG. 3B, Athymic mice bearing MDA-MB-231-iRFP tumors were injected i.v. with either ICG-p28 or ICG alone at 0.5 mg/kg. Twenty-four hours after injection, representative ex vivo images of the tumour and surrounding soft tissues for the ICG-p28 group (top row) and the ICG alone group (bottom row) were taken with an Odyssey scanner. The dotted line in the images indicates the outer edge of the soft tissue. iRFP (red: 700 nm); ICG-p28 or ICG (green: 800 nm); and colocalization (yellow-orange). In FIG. 3C, Concordance rate of the fluorescent signal in each group [the ICG-p28 group (n=10) and the ICG alone group (n=5)]; **: P<0.01.
ICG-p28 or ICG alone at 0.5 mg/kg was injected i.v. into athymic mice inoculated with MDA-MB-231-iRFP cells; 24 hr later, the xenografted tumors and surrounding tissues were removed.
MDA-MB-231-iRFP cells (1.0×10^6 cells in 0.1 ml PBS) were inoculated s.c. into the right back of mice. Once mice developed tumors (˜200 mm^3), they were injected i.v. with ICG-p28 or ICG at 0.5 mg/kg-b.w. Twenty-four hours after injection, tumors and the surrounding tissue were resected. Specimens were imaged ex vivo with an Odyssey scanner with the 700 nm channel for iRFP and the 800 nm channel for ICG-p28 or ICG alone. The area measurements were performed using ImageJ. The mean±SD values were calculated.

[1] = tested on: MDA-MB-231 or IOWA-IT orthotopic MFP xenograft tumors; experiment: Intraoperative imaging of orthotopic xenografts, tumor recurrence follow-up
TNBC PDX tumors [2] = experiment: Tumor recurrence follow-up after image-guided surgery in PDX model; assay type: in vivo, NSG mice
Procedure: Each agent was injected i.v. (tail vein) with the corresponding compound at the equivalent of ICG-p28 0.5 mg/kg-b.w. Twenty-four hours after injection, all surgical procedures were started under sterile conditions. Following anesthesia administration, the PDE imaging system was used to monitor NIR fluorescence throughout the entire surgical procedure. Tumors with a 2-mm safety margin and the surrounding mammary tissues at the 6 and 12 o'clock positions were removed in real time under guidance of the PDE imaging system. […] Following tumor excision, the skin incisions were closed using a nylon suture, and the mice were returned to their cages. After tumor resection, the mice were kept in their cages for an additional four weeks and monitored for tumor recurrence. Tumor recurrence was monitored by palpitation of the surgical area. Four weeks after surgery, the mice were evaluated to determine whether any of the tumors had recurred due to remnant positive margins at the resection site.

TNBC PDX tumors [3] = experiment: Histological analysis (H&E, Ki-67) of tumor margin samples; assay type: in vivo, NSG mice; conditions: H&E and Ki67 staining of margin samples
Procedure: We next performed traditional histological analyses with H&E and proliferative marker Ki67 staining on the set of tumor margin samples that were used for the Alu PCR assays.
Resected tissues were placed in containers prefilled with buffered 3.7% formalin (Anatech) and fixed for 24 hr. Formalin was replaced with 70% ethanol following fixation. Samples were paraffin-embedded, and blocks were cut into 4 μm-thick sections and mounted onto slides. H&E- and Ki-67-stained slides were analyzed by a pathologist blinded to the experimental groups and surgical resection results. The pathologist was responsible for determining a tumor's presence, margin status, and general characteristics of resected tissues.

[4] = ICG as used in clinical practice; cited from earlier work
[5] = tested on: multiple breast cancer animal models
[6] = tested on: MDA-MB-231 human breast cancer tumors; experiment: In vivo kinetic analysis: tumor/normal tissue NIR signal ratio (TBR); design: species or system athymic mice
Procedure: Since fluorescent imaging techniques rely on the concentration of each contrast agent, the optimum dose range for ICG-p28 in mice with MDA-MB-231 human breast cancer tumors was determined with the PDE unit. Each mouse was injected i.v. with ICG-p28 or ICG alone at 0.2-1.0 mg/kg (˜50 to 250 nM). The mice were imaged at various time points (6-72 hr), and the ratio of the NIR signal intensity of the tumor tissue and normal tissue (thigh) was calculated.
ICG-p28 or ICG alone was injected intravenously (i.v.) (tail vein) at 0.2, 0.5, or 1 mg/kg-b.w. Animals were imaged using an Odyssey scanner (LI-COR Biosciences) at 6-72 hr post i.v. administration. The tumor background ratio (TBR) was determined using ImageJ software (National Institutes of Health), where a region of interest (ROI) was drawn over the whole tumor and a background ROI was drawn over adjacent tissue. An ROI was manually generated around each tumor (800 nm channel).

TNBC PDX tumors [7] = experiment: Detection of residual cancer cells in the tumor margin by huAlu PCR; assay type: in vivo, NSG mice; conditions: equivalent of ICG-p28 0.5 mg/kg i.v., margins at 6 and 12 o'clock
Procedure: During image-guided surgery, tumors with a 2-mm safety margin and the surrounding mammary tissues at the 6 and 12 o'clock positions were removed in real time under guidance of the PDE imaging system (FIG. 6A). These samples were collected to undergo huAlu PCR as well as traditional histological analyses.
Each agent was injected i.v. (tail vein) with the corresponding compound at the equivalent of ICG-p28 0.5 mg/kg-b.w. Twenty-four hours after injection, all surgical procedures were started under sterile conditions. Following anesthesia administration, the PDE imaging system was used to monitor NIR fluorescence throughout the entire surgical procedure. […] After tumor resection, the mice were kept in their cages for an additional four weeks and monitored for tumor recurrence. Tumor recurrence was monitored by palpitation of the surgical area. Four weeks after surgery, the mice were evaluated to determine whether any of the tumors had recurred due to remnant positive margins at the resection site.
A quantitative analysis using human-specific Alu sequence (huAlu) was performed on samples collected from the margins. […] We standardized the quantitative detection of huAlu in resected tumors and surrounding margin tissues according to previously published methods. […] The mean±SD values were calculated.

[8] = tested on: advanced solid tumors; recurrent and refractory CNS tumors; conditions: human, in vivo; cited from earlier work

Molecule | concordance rate of 700 and 800 nm NIR signals (MDA-MB-231-iRFP tumors) | adverse events related to administration during tumor removal ([1]; 0.5 mg/kg i.v.) | tumor recurrence at the surgical sites ([1]; 0.5 mg/kg i.v., four weeks after tumor resection) | average volume of the recurrent tumors ([1]; four weeks after tumor resection) | tumor recurrence rate for the surgical site (TNBC PDX tumors [2]; four weeks after image-guided surgery) | average volume of the recurrent tumors (TNBC PDX tumors [2]; four weeks after surgical resection) | positive margin rate (TNBC PDX tumors [3]) | half-life [4] | tumor recurrence rate overall ([5]; multiple models combined, N of 24) | average recurrent tumor volume overall ([5]; multiple subtypes of breast cancer combined) | tumor/normal tissue ratio of NIR signal intensity ([6]; 0.2-1.0 mg/kg i.v., 24 hr, tumor vs thigh) | TBR ([6]; ICG alone, tumor site not distinguishable) | log (huAlu DNA/mGAPDH DNA) in surrounding tissues (TNBC PDX tumors [7]) | adverse effects, toxicity or immunogenicity [8]
CC1(C)C(/C=C/C=C/C=C/C=C2\N(CCCCS(=O)(=O)O)c3ccc4ccccc4c3C2(C)C)=[N+](CCCCS(=O)(=O)[O-])c2ccc3ccccc3c21 [ICG alone, indocyanine green] | 12% | no apparent adverse events | 25.0% | 423 mm3 | 50.0% | 1,952 mm^3 | 19% | 2 to 4 min | 33% | 1,188 mm^3 | ~1 | ~1.1 | −0.9 | –
p28: peptide derived from Pseudomonas aeruginosa azurin, amino acids 50-77 (SEQ ID NO: 5) | – | – | – | – | – | – | – | – | – | – | – | – | – | no significant adverse effects, toxicity or immunogenicity
